The values below come from PubChem BioAssay AID743369.

Active and inactive are the calls of the source. The rule behind the calls is not given here.

The target of the assay is Acetylcholine-binding protein (Lymnaea stagnalis) (UniProt P58154). In words: acetylcholine-binding protein ligand affinity – biochemical, Lymnaea stagnalis, His-tagged, [125I]alpha-bungarotoxin (AID 743369). To be noted: Purified AChBP, [125I]-alpha-bungarotoxin displacement, filtration.
Acetylcholine-binding protein (Lymnaea stagnalis), sequence (P58154 whole entry, looked up): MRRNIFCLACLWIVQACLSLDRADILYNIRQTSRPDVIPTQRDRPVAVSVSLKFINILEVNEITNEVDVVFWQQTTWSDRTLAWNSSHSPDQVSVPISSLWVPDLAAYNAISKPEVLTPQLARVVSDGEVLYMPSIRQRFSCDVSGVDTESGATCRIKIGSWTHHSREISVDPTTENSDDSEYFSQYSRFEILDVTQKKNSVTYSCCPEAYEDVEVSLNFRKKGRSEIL
Regarding `NC1=N/C(=C2/CCNC(=O)c3[nH]ccc32)C(=O)N1`, the Ki (as a rule, a dissociation constant, usually derived from enzyme kinetics or from competition with a known ligand) is “inactive”.
As for `COc1cc(CCN)c2c(c1OC)SSSSS2`, the Ki was 790 nM.
The value for `COn1c(Br)c2c3c(cccc31)[C@H]1C[C@@H](C)CN(C)[C@@H]1C2` was 830 nM; that for `C[C@@H](N)[C@H](O)CCCCCCCC(=O)CCCCCCCCCCCCCC[C@@H](O[C@@H]1O[C@H](CO)[C@H](O)[C@H](O)[C@H]1O)[C@@H](C)N` was 28000 nM.
As for `COc1cc2c3c(ccnc3c1OC)NC=C2`, the Ki is 3000 nM.
For `CC/C=C/[C@@H]1CC[C@]2(C[C@H]3CC[C@H]4[C@@H](C(=O)OC(CC)CCCCCCCCCCCCC[C@@H]5O[C@](O)(CCN)[C@H](O)N(CCCN)C5=O)[C@@]5(CCC[C@H](C)O5)NC(=[N+]34)N2)O1` (stereo partly specified), the inhibition constant Ki is 2500 nM.
